Usually Ki stands for the dissociation constant of the complex between target and ligand, obtained from inhibition or displacement.

The record followed here is patent publication US8008488B2 (Abbott GmbH & Co. KG, priority 2003, dated 2011).

Counter-ions that a name gives are not always drawn.

Test [1] deals with T1, human dopamine D3 receptors (Homo sapiens, UniProt P35462).
T1 construct: expressed in transfected cells
The test can be described thus: Dopamine D3 receptor binding, displacement of [125I]-iodosulpride. To be noted: membranes from HEK-293 cells with stably expressed human D3 receptors, 0.1 nM [125I]-iodosulpride. On the technique in general: Loss of bound radioactivity is the signal in a displacement assay; it reports binding, not function.

Test [2] deals with T2, human dopamine D2L receptors (long isoform) (Homo sapiens, UniProt P14416).
T2 construct: expressed in transfected cells
T2 sequence (P14416 whole entry, canonical isoform): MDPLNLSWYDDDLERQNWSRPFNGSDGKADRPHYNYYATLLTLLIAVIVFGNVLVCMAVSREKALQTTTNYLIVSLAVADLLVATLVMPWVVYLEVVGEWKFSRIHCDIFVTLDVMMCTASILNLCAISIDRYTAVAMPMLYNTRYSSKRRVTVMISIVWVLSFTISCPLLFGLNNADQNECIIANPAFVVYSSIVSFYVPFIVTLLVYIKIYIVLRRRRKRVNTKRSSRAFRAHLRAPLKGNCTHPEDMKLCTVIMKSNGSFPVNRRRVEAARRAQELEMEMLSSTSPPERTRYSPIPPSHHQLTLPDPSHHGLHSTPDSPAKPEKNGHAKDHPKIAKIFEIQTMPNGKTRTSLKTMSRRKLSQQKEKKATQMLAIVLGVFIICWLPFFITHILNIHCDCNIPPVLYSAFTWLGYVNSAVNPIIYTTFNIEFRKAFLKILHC
Briefly: Dopamine D2L receptor binding, displacement of [125I]-iodospiperone. The following applies: *Ki(D2L)/Ki(D3), HEK-293 membranes, 0.01 nM [125I]-iodospiperone. An outline of the steps: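 Triplicate incubations ran 60 min at 25 °C in pH 7.4 Tris buffer with 120 mM NaCl, 5 mM KCl, 2 mM CaCl2, 2 mM MgCl2 and 0.1% BSA. Bound radioactivity was collected by GF/B filtration and counted as dpm. Inhibition curves were fitted by iterative nonlinear regression.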

T1 sequence (P35462 whole entry): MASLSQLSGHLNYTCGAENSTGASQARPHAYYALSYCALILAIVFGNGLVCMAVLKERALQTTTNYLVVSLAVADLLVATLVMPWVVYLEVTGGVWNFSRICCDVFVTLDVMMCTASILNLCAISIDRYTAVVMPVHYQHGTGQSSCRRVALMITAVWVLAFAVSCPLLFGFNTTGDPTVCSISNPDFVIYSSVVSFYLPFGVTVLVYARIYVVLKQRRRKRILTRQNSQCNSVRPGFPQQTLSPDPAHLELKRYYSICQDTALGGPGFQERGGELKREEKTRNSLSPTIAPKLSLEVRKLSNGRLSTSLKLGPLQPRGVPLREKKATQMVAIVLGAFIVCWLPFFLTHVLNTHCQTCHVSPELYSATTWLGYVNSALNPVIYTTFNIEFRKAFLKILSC

In test [1], `CCCc1cc(N2CCN(CCCCn3ccc(-c4ccccc4C)nc3=O)CC2)nc(C(C)(C)C)n1` [Example 57, 4-(2-tert-Butyl-6-propylpyrimidin-4-yl)-1-[4-(2-oxo-4-(o-tolyl)-2H-pyrimidin-1-yl)butyl]-piperazin-1-ium fumarate] displayed an inhibitory constant (Ki) of 0.96 nM. For the same compound, the “Selectivity D3 vs. D2L*” value in test [2] amounted to 111.
In test [1], `CCOc1ccn(CCCCN2CCN(c3cc(C(F)(F)F)nc(C(C)(C)C)n3)CC2)c(=O)n1` [Example 85, 4-(2-tert-Butyl-6-trifluoromethylpyrimidin-4-yl)-1-[4-(4-ethoxy-2-oxo-2H-pyrimidin-1-yl)butyl]piperazin-1-ium fumarate] displayed a Ki of 7.36 nM. Moreover, the “Selectivity D3 vs. D2L*” value in test [2] is listed as 35.
The like results for `CC(C)(C)c1nc(N2CCN(CCCCn3ccc(C(F)(F)F)nc3=O)CC2)cc(C(F)(F)F)n1.Cl` [Example 15, 1-[2-tert-Butyl-6-(trifluoromethyl)pyrimidin-4-yl]-4-{4-[2-oxo-4-(trifluoromethyl)pyrimidin-1 (2H)-yl]butyl}piperazin-4-ium chloride] were, in that order, 14.5 nM and 64.
As for `CCc1cn(CCCCN2CCN(c3cc(C(F)(F)F)nc(C(C)(C)C)n3)CC2)c(=O)[nH]c1=O` [Example 83, 4-(2-tert-Butyl-6-trifluoromethylpyrimidin-4-yl)-1-[4-(5-ethyl-2,4-dioxo-3,4-dihydro-2H-pyrimidin-1-yl)butyl]piperazine 1-fumarate], in test [1], the Ki worked out at 1.66 nM. Further, the “Selectivity D3 vs. D2L*” value in test [2] is recorded as 89.
For `CCCc1cc(N2CCN(CCCCn3cc(CC)c(=O)[nH]c3=O)CC2)nc(C(C)(C)C)n1` [Example 84, 4-(2-tert-Butyl-6-propylpyrimidin-4-yl)-1-[4-(5-ethyl-2,4-dioxo-3,4-dihydro-2H-pyrimidin-1-yl)butyl]piperazin-1-ium fumarate], in that order: 0.75 nM and 63.
In turn, `CCCc1cc(N2CCN(CCCCn3ccc(C4CCCCC4)nc3=O)CC2)nc(C(C)(C)C)n1` [Example 100, 4-(2-tert-Butyl-6-propylpyrimidin-4-yl)-1-[4-(4-cyclohexyl-2-oxo-2H-pyrimidin-1-yl)butyl]piperazin-1-ium fumarate] returned a Ki in test [1] of 1.38 nM. Also, the “Selectivity D3 vs. D2L*” value in test [2] is 51.
The like results for `CC(C)(C)c1nc(N2CCN(CCCCn3cc(C#N)c(=O)[nH]c3=O)CC2)cc(C(F)(F)F)n1` [Example 18, 1-(4-{4-[2-tert-Butyl-6-(trifluoromethyl)pyrimidin-4-yl]piperazin-1-yl}butyl)-2,4-dioxo-1,2,3,4-tetrahydropyrimidine-5-carbonitrile] were, in that order, 4.78 nM and 99.
In the case of `Cc1cc(C)cc(N2CCN(CCCCn3cc(C)c(=O)[nH]c3=O)CC2)c1` [Example 132, 1-{4-[4-(3,5-Dimethylphenyl)piperazin-1-yl]butyl}-5-methyl-1H-pyrimidine-2,4-dione], the Ki in test [1] was found to be 5.5 nM. Besides, in test [2], the “Selectivity D3 vs. D2L*” value was 34.
In the case of `Cc1cn(CCCCN2CCN(c3ccccc3Cl)CC2)c(=O)[nH]c1=O` [Example 127, 1-{4-[4-(2-Chlorophenyl)piperazin-1-yl]butyl}-5-methyl-1H-pyrimidine-2,4-dione], the affinity in test [1], expressed as Ki, was 1.5 nM. Moreover, the “Selectivity D3 vs. D2L*” value in test [2] is 45.
In test [1], `Cc1cn(CCCCN2CCN(c3cc(Cl)cc(Cl)c3)CC2)c(=O)[nH]c1=O` [Example 119, 1-{4-[4-(3,5-Dichlorophenyl)piperazin-1-yl]butyl}-5-methyl-1H-pyrimidine-2,4-dione] had a Ki of 0.46 nM. Besides, the “Selectivity D3 vs. D2L*” value in test [2] is listed as 65.
